Reference: ChEMBL document CHEMBL1142214, “Synergistic interaction between phenothiazines and antimicrobial agents against Burkholderia pseudomallei” (2007)

How the values were obtained:
Type in all cases: functional
[1] = tested on: Burkholderia pseudomallei; assay: Antimicrobial activity against Burkholderia pseudomallei KHW in presence of 15.6 uM omeprazole
[2] = tested on: Burkholderia pseudomallei; assay: Antimicrobial activity against Burkholderia pseudomallei KHW in presence of 31.3 uM prochlorperazine
[3] = tested on: Burkholderia pseudomallei; assay: Antimicrobial activity against Burkholderia pseudomallei KHW in presence of 15.6 uM prochlorperazine
[4] = tested on: Burkholderia pseudomallei; assay: Antimicrobial activity against Burkholderia pseudomallei KHW in presence of 7.8 uM prochlorperazine
[5] = tested on: Burkholderia pseudomallei; assay: Antimicrobial activity against Burkholderia pseudomallei KHW in presence of 3.9 uM prochlorperazine
[6] = tested on: Burkholderia pseudomallei; assay: Antimicrobial activity against Burkholderia pseudomallei KHW in presence of 1000 uM promazine
[7] = tested on: Burkholderia pseudomallei; assay: Antimicrobial activity against Burkholderia pseudomallei KHW in presence of 250 uM promazine
[8] = tested on: Burkholderia pseudomallei; assay: Antimicrobial activity against Burkholderia pseudomallei KHW in presence of 125 uM promazine
[9] = tested on: Burkholderia pseudomallei; assay: Antimicrobial activity against Burkholderia pseudomallei KHW in presence of 62.5 uM promazine
[10] = tested on: Burkholderia pseudomallei; assay: Antimicrobial activity against Burkholderia pseudomallei KHW in presence of 31.3 uM promazine
[11] = tested on: Burkholderia pseudomallei; assay: Antimicrobial activity against Burkholderia pseudomallei KHW in presence of 15.6 uM promazine
[12] = tested on: Burkholderia pseudomallei; assay: Antimicrobial activity against Burkholderia pseudomallei KHW in presence of 7.8 uM promazine
[13] = tested on: Burkholderia pseudomallei; assay: Antimicrobial activity against Burkholderia pseudomallei KHW in presence of 3.9 uM promazine
[14] = tested on: Burkholderia pseudomallei; assay: Antimicrobial activity against Burkholderia pseudomallei KHW in presence of 500 uM omeprazole
[15] = tested on: Burkholderia pseudomallei; assay: Antimicrobial activity against Burkholderia pseudomallei KHW in presence of 250 uM omeprazole
[16] = tested on: Burkholderia pseudomallei; assay: Antimicrobial activity against Burkholderia pseudomallei KHW in presence of 125 uM omeprazole
[17] = tested on: Burkholderia pseudomallei; assay: Antimicrobial activity against Burkholderia pseudomallei KHW in presence of 62.5 uM omeprazole
[18] = tested on: Burkholderia pseudomallei; assay: Antimicrobial activity against Burkholderia pseudomallei KHW in presence of 31.3 uM omeprazole
[19] = tested on: Burkholderia pseudomallei; assay: Antimicrobial activity against Burkholderia pseudomallei KHW in presence of 7.8 uM omeprazole
[20] = tested on: Burkholderia pseudomallei; assay: Antimicrobial activity against Burkholderia pseudomallei KHW in presence of 3.9 uM omeprazole
[21] = tested on: Burkholderia pseudomallei; assay: Antimicrobial activity against Burkholderia pseudomallei KHW in presence of 1000 uM chlorpromazine
[22] = tested on: Burkholderia pseudomallei; assay: Antimicrobial activity against Burkholderia pseudomallei KHW
[23] = tested on: Burkholderia pseudomallei; assay: Antimicrobial activity against Burkholderia pseudomallei KHW in presence of 1000 uM prochlorperazine
[24] = tested on: Burkholderia pseudomallei; assay: Antimicrobial activity against Burkholderia pseudomallei KHW in presence of 500 uM prochlorperazine
[25] = tested on: Burkholderia pseudomallei; assay: Antimicrobial activity against Burkholderia pseudomallei KHW in presence of 250 uM prochlorperazine
[26] = tested on: Burkholderia pseudomallei; assay: Antimicrobial activity against Burkholderia pseudomallei KHW in presence of 125 uM prochlorperazine
[27] = tested on: Burkholderia pseudomallei; assay: Antimicrobial activity against Burkholderia pseudomallei KHW in presence of 62.5 uM prochlorperazine
[28] = tested on: Burkholderia pseudomallei; assay: Antimicrobial activity against Burkholderia pseudomallei KHW in presence of 500 uM chlorpromazine
[29] = tested on: Burkholderia pseudomallei; assay: Antimicrobial activity against Burkholderia pseudomallei KHW in presence of 125 uM chlorpromazine
[30] = tested on: Burkholderia pseudomallei; assay: Antimicrobial activity against Burkholderia pseudomallei KHW in presence of 62.5 uM chlorpromazine
[31] = tested on: Burkholderia pseudomallei; assay: Antimicrobial activity against Burkholderia pseudomallei KHW in presence of 31.3 uM chlorpromazine
[32] = tested on: Burkholderia pseudomallei; assay: Antimicrobial activity against Burkholderia pseudomallei KHW in presence of 15.6 uM chlorpromazine
[33] = tested on: Burkholderia pseudomallei; assay: Antimicrobial activity against Burkholderia pseudomallei KHW in presence of 7.8 uM chlorpromazine
[34] = tested on: Burkholderia pseudomallei; assay: Antimicrobial activity against Burkholderia pseudomallei KHW in presence of 3.9 uM chlorpromazine

C[C@H]1COc2c(N3CCN(C)CC3)c(F)cc3c(=O)c(C(=O)O)cn1c23.C[C@H]1COc2c(N3CCN(C)CC3)c(F)cc3c(=O)c(C(=O)O)cn1c23.O [LEVOFLOXACIN]
MIC [1]: 2 µg/mL
MIC [2]: 2 µg/mL
MIC [3]: 2 µg/mL
MIC [4]: 2 µg/mL
MIC [5]: 2 µg/mL
MIC [6]: < 0.25 µg/mL
MIC [7]: 2 µg/mL
MIC [8]: 2 µg/mL
MIC [9]: 2 µg/mL
MIC [10]: 2 µg/mL
MIC [11]: 2 µg/mL
MIC [12]: 2 µg/mL
MIC [13]: 2 µg/mL
MIC [14]: 2 µg/mL
MIC [15]: 2 µg/mL
MIC [16]: 2 µg/mL
MIC [17]: 2 µg/mL
MIC [18]: 2 µg/mL
MIC [19]: 2 µg/mL
MIC [20]: 2 µg/mL
MIC [21]: < 0.25 µg/mL
MIC [22]: 2 µg/mL
MIC [23]: < 0.25 µg/mL
MIC [24]: < 0.25 µg/mL
MIC [25]: 2 µg/mL
MIC [26]: 2 µg/mL
MIC [27]: 2 µg/mL
MIC [28]: < 0.25 µg/mL
MIC [29]: 2 µg/mL
MIC [30]: 2 µg/mL
MIC [31]: 2 µg/mL
MIC [32]: 2 µg/mL
MIC [33]: 2 µg/mL
MIC [34]: 2 µg/mL
